Data published in ChEMBL document CHEMBL5126523, “Recent advances in DDR (DNA damage response) inhibitors for cancer therapy” (Eur J Med Chem, 2022).

Key:
[1] = Tmax in ICR mouse at 3 mg/kg, iv measured for 2 to 1440 mins; type: ADME, organism-based; conditions: in vivo, time 2-1440 min
[2] = Oral bioavailability in ICR mouse at 10 mg/kg measured for 5 to 1440 mins; type: ADME, organism-based; conditions: in vivo, time 5-1440 min
[3] = Cmax in ICR mouse at 10 mg/kg, po measured for 5 to 1440 mins; type: ADME, organism-based; parameters: time upper 1440 min, dose 10 mg/kg, time lower 5 min, route po; conditions: in vivo
[4] = Tmax in ICR mouse at 10 mg/kg, po measured for 5 to 1440 mins; type: ADME, organism-based; conditions: in vivo, time 5-1440 min
[5] = AUC (0 to last) in ICR mouse at 3 mg/kg, iv measured for 2 to 1440 mins; type: ADME, organism-based; parameters: time 2-1440 min, dose 3 mg/kg, route iv; conditions: in vivo
[6] = Half life in ICR mouse at 3 mg/kg, iv measured for 2 to 1440 mins; type: ADME, organism-based; conditions: in vivo, time 2-1440 min
Wee1-like protein kinase [7] = molecular target: T1, Wee1-like protein kinase (Homo sapiens, UniProt P30291); assay: Inhibition of N-terminal GST-tagged wild-type WEE1 (215 to 646 residues) (unknown origin) expressed in Sf21 insect cells incubated for 60 mins in presence of ATP by ELISA
T1 sequence (P30291 whole entry, the tested form may be a part): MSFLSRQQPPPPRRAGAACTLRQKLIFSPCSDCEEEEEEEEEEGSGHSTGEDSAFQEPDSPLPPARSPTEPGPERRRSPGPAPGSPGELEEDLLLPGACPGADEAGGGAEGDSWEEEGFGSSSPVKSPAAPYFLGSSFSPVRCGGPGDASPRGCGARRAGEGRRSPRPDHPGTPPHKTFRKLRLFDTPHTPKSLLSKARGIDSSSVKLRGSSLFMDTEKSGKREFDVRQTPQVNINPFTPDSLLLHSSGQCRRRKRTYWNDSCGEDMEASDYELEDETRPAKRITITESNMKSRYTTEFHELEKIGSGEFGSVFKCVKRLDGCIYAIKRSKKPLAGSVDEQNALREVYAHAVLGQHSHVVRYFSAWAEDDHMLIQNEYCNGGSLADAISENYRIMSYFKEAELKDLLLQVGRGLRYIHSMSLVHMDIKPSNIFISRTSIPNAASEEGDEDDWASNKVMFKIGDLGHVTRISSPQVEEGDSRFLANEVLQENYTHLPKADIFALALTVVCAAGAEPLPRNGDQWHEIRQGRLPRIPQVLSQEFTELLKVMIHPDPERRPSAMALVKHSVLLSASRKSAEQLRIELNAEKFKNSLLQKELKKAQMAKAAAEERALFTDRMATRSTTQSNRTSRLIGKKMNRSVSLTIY

[8] = Cmax in ICR mouse at 3 mg/kg, iv measured for 2 to 1440 mins; type: ADME, organism-based; parameters: time upper 1440 min, dose 3 mg/kg, time lower 2 min, route iv; conditions: in vivo
[9] = AUC (0 to last) in ICR mouse at 10 mg/kg, po measured for 5 to 1440 mins; type: ADME, organism-based; parameters: time 5-1440 min, dose 10 mg/kg, route po; conditions: in vivo
[10] = Half life in ICR mouse at 10 mg/kg, po measured for 5 to 1440 mins; type: ADME, organism-based; conditions: in vivo, time 5-1440 min
[11] = Half life in mouse at 0.4 mg/kg, iv; type: ADME, organism-based; conditions: in vivo
[12] = AUC (0 to last) in mouse at 0.4 mg/kg, iv; type: ADME, organism-based; parameters: time 0 - last, dose 0.4 mg/kg, route iv; conditions: in vivo
[13] = molecular target: DNA-dependent protein kinase catalytic subunit (Homo sapiens, UniProt P78527); assay: Inhibition of DNA-PK (unknown origin)
[14] = molecular target: T2, Serine/threonine-protein kinase ATR (Homo sapiens, UniProt Q13535); assay: Binding affinity to ATR (unknown origin) assessed as inhibition constant
T2 sequence (Q13535 whole entry): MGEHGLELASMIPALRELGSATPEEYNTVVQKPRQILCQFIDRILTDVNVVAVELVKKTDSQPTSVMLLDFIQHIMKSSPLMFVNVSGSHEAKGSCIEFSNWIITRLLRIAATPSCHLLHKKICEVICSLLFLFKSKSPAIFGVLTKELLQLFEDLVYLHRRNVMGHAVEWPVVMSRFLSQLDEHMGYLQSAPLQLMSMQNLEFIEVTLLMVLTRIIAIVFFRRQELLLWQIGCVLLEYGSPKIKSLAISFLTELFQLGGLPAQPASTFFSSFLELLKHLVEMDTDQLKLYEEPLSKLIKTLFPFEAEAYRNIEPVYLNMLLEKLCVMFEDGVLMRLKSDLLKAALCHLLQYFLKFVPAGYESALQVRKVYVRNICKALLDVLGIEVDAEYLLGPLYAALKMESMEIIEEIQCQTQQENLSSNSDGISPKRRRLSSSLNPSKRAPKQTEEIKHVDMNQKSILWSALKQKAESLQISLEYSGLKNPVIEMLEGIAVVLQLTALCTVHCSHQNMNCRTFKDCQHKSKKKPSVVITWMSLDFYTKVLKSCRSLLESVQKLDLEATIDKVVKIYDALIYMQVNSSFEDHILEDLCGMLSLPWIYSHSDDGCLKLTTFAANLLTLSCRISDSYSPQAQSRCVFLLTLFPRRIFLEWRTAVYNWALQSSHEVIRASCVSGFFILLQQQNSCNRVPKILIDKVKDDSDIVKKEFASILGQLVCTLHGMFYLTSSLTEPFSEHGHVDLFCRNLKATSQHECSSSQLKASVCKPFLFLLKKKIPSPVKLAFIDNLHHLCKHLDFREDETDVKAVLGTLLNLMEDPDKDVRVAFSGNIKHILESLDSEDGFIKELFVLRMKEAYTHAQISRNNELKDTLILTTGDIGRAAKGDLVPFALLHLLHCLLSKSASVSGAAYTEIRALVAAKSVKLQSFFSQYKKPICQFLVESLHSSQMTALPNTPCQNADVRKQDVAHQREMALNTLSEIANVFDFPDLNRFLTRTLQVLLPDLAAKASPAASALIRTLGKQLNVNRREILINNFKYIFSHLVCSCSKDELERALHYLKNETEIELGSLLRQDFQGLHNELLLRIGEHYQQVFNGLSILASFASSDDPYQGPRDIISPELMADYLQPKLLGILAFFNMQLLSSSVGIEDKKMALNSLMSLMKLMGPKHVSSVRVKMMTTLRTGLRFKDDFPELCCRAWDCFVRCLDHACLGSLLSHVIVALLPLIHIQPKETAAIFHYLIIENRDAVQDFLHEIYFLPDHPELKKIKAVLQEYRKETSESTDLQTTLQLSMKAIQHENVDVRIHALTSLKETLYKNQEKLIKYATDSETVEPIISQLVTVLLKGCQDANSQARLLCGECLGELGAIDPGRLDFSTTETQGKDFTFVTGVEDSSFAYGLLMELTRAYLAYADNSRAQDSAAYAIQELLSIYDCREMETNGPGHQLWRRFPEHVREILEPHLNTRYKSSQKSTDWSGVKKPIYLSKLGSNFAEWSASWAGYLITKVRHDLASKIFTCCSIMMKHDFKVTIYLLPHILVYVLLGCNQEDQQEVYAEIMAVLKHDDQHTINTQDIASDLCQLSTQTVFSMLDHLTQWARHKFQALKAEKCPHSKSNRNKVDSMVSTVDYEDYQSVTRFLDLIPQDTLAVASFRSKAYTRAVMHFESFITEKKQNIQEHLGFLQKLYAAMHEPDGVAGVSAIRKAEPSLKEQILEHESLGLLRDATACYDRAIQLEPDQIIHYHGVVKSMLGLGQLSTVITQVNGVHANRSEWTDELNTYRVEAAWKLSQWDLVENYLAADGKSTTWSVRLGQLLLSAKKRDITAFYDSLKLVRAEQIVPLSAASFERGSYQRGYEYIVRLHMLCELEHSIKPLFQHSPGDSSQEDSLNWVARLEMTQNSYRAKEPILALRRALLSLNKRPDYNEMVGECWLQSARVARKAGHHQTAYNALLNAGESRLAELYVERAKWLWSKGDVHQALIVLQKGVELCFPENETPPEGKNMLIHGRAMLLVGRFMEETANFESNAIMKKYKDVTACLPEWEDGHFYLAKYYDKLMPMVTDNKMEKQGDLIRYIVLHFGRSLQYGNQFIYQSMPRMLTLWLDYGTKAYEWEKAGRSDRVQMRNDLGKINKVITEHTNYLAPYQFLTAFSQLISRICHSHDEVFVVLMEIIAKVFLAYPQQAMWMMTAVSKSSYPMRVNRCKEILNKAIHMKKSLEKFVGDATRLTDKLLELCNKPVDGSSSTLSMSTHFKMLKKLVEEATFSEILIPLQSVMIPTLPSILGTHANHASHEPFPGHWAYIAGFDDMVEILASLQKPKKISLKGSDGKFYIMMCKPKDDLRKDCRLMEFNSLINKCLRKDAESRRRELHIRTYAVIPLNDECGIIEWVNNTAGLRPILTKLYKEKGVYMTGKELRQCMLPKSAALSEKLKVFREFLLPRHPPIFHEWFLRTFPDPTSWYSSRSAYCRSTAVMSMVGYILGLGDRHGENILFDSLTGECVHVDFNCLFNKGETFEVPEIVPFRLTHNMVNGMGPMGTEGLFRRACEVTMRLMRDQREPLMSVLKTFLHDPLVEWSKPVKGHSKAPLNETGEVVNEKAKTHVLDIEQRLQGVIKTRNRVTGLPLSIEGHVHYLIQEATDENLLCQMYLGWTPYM

[15] = molecular target: T2, Serine/threonine-protein kinase ATR; assay: Inhibition of ATR (unknown origin)-driven CHK1 phosphorylation
Wee1-like protein kinase [16] = molecular target: T1, Wee1-like protein kinase; assay: Inhibition of WEE1 (unknown origin) using LSNLYHQGKFLQTFCGSPLYRRR polypeptide as substrate incubated for 40 mins in presence of [gamma-33P]-ATP by scintillation counting method
[17] = molecular target: T3, Protein cereblon/Wee1-like protein kinase (Homo sapiens, UniProt P30291+Q96SW2); assay: PROTAC activity at CRBN/recombinant WEE1 (unknown origin) assessed as induction of WEE1 degradation by FRET based Lantha Screen assay; type: protein assay
T3 sequence (P30291 whole entry): as the sequence (P30291 whole entry, the tested form may be a part) above
T3 sequence (Q96SW2 whole entry): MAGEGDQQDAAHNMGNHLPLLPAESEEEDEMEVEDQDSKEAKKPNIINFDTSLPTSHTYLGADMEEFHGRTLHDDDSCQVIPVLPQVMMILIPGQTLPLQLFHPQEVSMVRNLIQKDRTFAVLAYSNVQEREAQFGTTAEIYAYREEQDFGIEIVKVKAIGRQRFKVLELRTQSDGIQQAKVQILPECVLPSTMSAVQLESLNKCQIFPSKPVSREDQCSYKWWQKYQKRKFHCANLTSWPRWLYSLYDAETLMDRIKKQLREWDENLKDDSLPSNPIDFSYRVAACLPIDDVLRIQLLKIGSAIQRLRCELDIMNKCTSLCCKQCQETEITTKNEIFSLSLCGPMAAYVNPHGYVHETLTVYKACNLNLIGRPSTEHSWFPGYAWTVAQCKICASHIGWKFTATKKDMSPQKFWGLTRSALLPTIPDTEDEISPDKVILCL

[18] = molecular target: T3, Protein cereblon/Wee1-like protein kinase; assay: PROTAC activity at CRBN/WEE1 in human […] assessed as induction of WEE1 degradation treated for 5 hrs by Western blot analysis; type: cell-based
NCI-H1703 = assay: Antitumor activity against human NCI-H1703 cells xenografted in BALB/c mouse assessed as tumor growth inhibition at 90 mg/kg, bid measured on day 21 by vernier caliper method relative to control; type: functional; conditions: NCI-H1703, 504 h, read-out: TGI
[19] = Half life in BALB/c mouse at 0.4 mg/kg, iv by LC-MS/MS analysis; type: ADME, organism-based; conditions: in vivo
[20] = AUC (0 to last) in BALB/c mouse at 0.4 mg/kg, iv by LC-MS/MS analysis; type: ADME, organism-based; parameters: time 0 - last, dose 0.4 mg/kg, route iv; conditions: in vivo
[21] = Half life in BALB/c mouse at 2 mg/kg, po by LC-MS/MS analysis; type: ADME, organism-based; conditions: in vivo
[22] = Cmax in BALB/c mouse at 2 mg/kg, po by LC-MS/MS analysis; type: ADME, organism-based; parameters: dose 2 mg/kg, route po; conditions: in vivo
[23] = Oral bioavailability in BALB/c mouse at 2 mg/kg by LC-MS/MS analysis; type: ADME, organism-based; conditions: in vivo
[24] = Tmax in BALB/c mouse at 2 mg/kg, po by LC-MS/MS analysis; type: ADME, organism-based; conditions: in vivo
[25] = AUC (0 to last) in BALB/c mouse at 2 mg/kg, po by LC-MS/MS analysis; type: ADME, organism-based; parameters: time 0 - last, dose 2 mg/kg, route po; conditions: in vivo
[26] = Oral bioavailability in BALB/c nude mouse at 1 mg/kg, iv measured for 0.08 to 24 hrs by LC-MS/MS analysis; type: ADME, organism-based; conditions: in vivo, time 0.08-24 hrs
[27] = AUC (0 to last) in BALB/c nude mouse at 1 mg/kg, iv measured for 0.08 to 24 hrs by LC-MS/MS analysis; type: ADME, organism-based; parameters: time 0.08-24 hrs, dose 1 mg/kg, route iv; conditions: in vivo
[28] = Half life in BALB/c nude mouse at 1 mg/kg, iv measured for 0.08 to 24 hrs by LC-MS/MS analysis; type: ADME, organism-based; conditions: in vivo, time 0.08-24 hrs
LoVo [29] = assay: Antitumor activity against human LoVo cells xenografted in BALB/c nude mouse assessed as tumor growth inhibition at 40 mg/kg,iv bid by vernier caliper method relative to control; type: functional; conditions: read-out: TGI
[30] = AUC in overnight fasted Sprague-Dawley rat at 2 mg/kg, po via gavage measured for 0.25 to 24 hrs by LC/MS/MS analysis; type: ADME, organism-based; parameters: time 0.25-24 hrs, dose 2 mg/kg, route po; conditions: in vivo
[31] = Half life in overnight fasted Sprague-Dawley rat at 2 mg/kg, po via gavage measured for 0.25 to 24 hrs by LC/MS/MS analysis; type: ADME, organism-based; conditions: in vivo, time 0.25-24 hrs
LoVo [32] = assay: Inhibition of cell growth in human LoVo cells assessed as measuring ATP content incubated for 3 days by Cell Titer Glo assay; type: functional, cell-based; conditions: 72 h
ATR/ATRIP = ATR/ATRIP (Homo sapiens, UniProt Q13535); assay: Inhibition of human FLAG-tagged ATR/c-Myc-tagged ATRIP expressed in mammalian expression system using p53 as substrate incubated for 2 hrs by fluorescence based assay
Chain of ATR/ATRIP (Q13535 whole entry): as the sequence (Q13535 whole entry) above
Chain of ATR/ATRIP (Q8WXE1 whole entry, further chain): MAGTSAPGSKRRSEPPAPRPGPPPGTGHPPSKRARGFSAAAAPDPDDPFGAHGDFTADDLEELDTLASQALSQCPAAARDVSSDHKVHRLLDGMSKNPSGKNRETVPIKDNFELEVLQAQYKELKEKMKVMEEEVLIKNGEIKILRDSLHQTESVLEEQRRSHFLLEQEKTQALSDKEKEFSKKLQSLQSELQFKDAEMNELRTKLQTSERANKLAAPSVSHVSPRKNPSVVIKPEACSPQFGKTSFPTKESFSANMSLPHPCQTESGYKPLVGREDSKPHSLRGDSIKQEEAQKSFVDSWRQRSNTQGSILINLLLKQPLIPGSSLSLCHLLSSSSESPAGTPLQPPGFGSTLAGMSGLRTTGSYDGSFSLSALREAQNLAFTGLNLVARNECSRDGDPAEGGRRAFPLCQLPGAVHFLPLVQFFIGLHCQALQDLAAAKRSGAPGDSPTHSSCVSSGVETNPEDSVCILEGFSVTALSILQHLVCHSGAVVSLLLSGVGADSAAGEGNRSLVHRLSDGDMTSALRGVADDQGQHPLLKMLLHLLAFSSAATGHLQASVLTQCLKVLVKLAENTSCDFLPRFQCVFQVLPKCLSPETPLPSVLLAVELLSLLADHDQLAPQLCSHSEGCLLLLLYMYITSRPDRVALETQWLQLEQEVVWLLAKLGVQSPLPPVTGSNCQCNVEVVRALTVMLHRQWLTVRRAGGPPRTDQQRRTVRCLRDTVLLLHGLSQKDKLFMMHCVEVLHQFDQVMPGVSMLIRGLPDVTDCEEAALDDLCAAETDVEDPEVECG

[33] = Cmax in overnight fasted Sprague-Dawley rat at 2 mg/kg, po via gavage measured for 0.25 to 24 hrs by LC/MS/MS analysis; type: ADME, organism-based; parameters: dose 2 mg/kg, time upper 24 hrs, time lower 0.25 hrs, route po; conditions: in vivo
[34] = molecular target: Serine/threonine-protein kinase Chk1 (Homo sapiens, UniProt O14757); assay: Inhibition of N-terminal GST-tagged full-length recombinant human CHK1 expressed in baculovirus infected Sf9 insect cells using FAM-P10 peptide as substrate preincubated for 10 mins followed by substrate addition measured after 60 mins by ADP-Glo assay
Chain of Serine/threonine-protein kinase Chk1 (O14757 whole entry): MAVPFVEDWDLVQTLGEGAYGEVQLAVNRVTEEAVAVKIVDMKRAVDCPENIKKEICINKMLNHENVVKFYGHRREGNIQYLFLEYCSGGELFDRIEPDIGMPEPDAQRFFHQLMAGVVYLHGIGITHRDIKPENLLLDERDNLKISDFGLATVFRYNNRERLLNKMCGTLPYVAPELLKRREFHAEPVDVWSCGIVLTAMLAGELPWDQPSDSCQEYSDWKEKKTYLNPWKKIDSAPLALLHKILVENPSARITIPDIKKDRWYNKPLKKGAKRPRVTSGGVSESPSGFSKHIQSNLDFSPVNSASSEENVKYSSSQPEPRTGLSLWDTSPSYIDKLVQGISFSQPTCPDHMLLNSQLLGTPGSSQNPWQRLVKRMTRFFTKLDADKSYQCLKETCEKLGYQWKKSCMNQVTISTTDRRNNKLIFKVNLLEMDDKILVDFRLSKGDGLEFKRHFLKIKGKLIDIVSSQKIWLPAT

HT-29 = assay: Antitumor activity against human HT-29 cells xenografted in BALB/c mouse assessed as tumor growth inhibition relative to control; type: functional
[35] = AUC (0 to last) in Sprague-Dawley rat at 10 mg/kg, iv by LC-MS/MS analysis; type: ADME, organism-based; parameters: time 0 - last, dose 10 mg/kg, route iv; conditions: in vivo
[36] = Half life in Sprague-Dawley rat at 10 mg/kg, iv by LC-MS/MS analysis; type: ADME, organism-based; conditions: in vivo
[37] = Cmax in overnight fasted rat at 5 mg/kg, po via gavage measured for 0.25 to 24 hrs by LC/MS/MS analysis; type: ADME, organism-based; parameters: dose 5 mg/kg, time upper 24 hrs, time lower 0.25 hrs, route po; conditions: in vivo
[38] = AUC (0 to last) in overnight fasted rat at 5 mg/kg, po via gavage measured for 0.25 to 24 hrs by LC/MS/MS analysis; type: ADME, organism-based; parameters: time upper 24 hrs, dose 5 mg/kg, time lower 0.25 hrs, route po; conditions: in vivo
Wee1-like protein kinase [39] = molecular target: T1, Wee1-like protein kinase; assay: Displacement of tracer 178 from N-terminal GST-fused human WEE1 (215 to 646 residues) expressed in baculovirus expression system preincubated for 5 mins followed by tracer addition measured after 60 mins by Lantha Screen EU assay

## C=CCn1c(=O)c2cnc(Nc3ccc(N4C[C@H]5CN(CC6CC6)C[C@H]5C4)cc3)nc2n1-c1ccc(C(C)(C)O)cn1
[1]
  Tmax: 1.8 min
[2]
  bioavailability: 63.7%
[3]
  Cmax: 266 nM
[4]
  Tmax: 55.2 min
[5]
  AUC(0-t): 153 ng·h/mL
[6]
  half-life: 43.8 min
Wee1-like protein kinase [7]
  IC50: 3.12 nM
[8]
  Cmax: 430 nM
[9]
  AUC(0-t): 326 ng·h/mL
[10]
  half-life: 57 min

## COc1ccc(C2(c3cc(-c4ncnc5cc(N6CCOCC6)ccc45)c(F)cc3Cl)CC2)nn1
[11]
  half-life: 35.4 min
[12]
  AUC(0-t): 2260 ng·h/mL
[13]
  IC50: 29 nM

## Nc1nn2cc(F)cnc2c1C(=O)Nc1cncc(F)c1N1CCC(C(=O)N2CCN(C3COC3)CC2)CC1 [M4344]
[14]
  Ki: < 0.15 nM
[15]
  IC50: 8 nM

## CN1CC2CN(c3ccc(Nc4ncc5c(=O)n6n(c5n4)-c4cccc(n4)C(C)(O)CCC/C=C\C6)cc3)CC2C1 (configuration not stated)
Wee1-like protein kinase [16]
  IC50: 57 nM

## C=CCn1c(=O)c2cnc(Nc3ccc(N4CCN(CCCNc5cccc6c5C(=O)N(C5CCC(=O)NC5=O)C6=O)CC4)cc3)nc2n1-c1cccc(C(C)(C)O)n1 (configuration not stated)
[17]
  IC50: 3.58 nM
[18]
  EC50: 100 nM

## Cc1cc2ncnn2cc1Nc1ncc2c(n1)n(N1CC3CCC(C1)O3)c(=O)n2C
NCI-H1703
  inhibition in vivo at 90 mg/kg: 79.4%
[19]
  half-life: 76.8 min
[20]
  AUC(0-t): 1.66 µM·h
[21]
  half-life: 231 min
[22]
  Cmax: 2170 nM
[23]
  bioavailability: 44.5%
[24]
  Tmax: 15 min
[25]
  AUC(0-t): 3.49 µM·h

## CN1CCN(c2ccc(Nc3ncc4c(=O)n5n(c4n3)-c3cccc(n3)[C@@](C)(O)CCC/C=C\C5)cc2)CC1
[26]
  bioavailability: 62.4%
[27]
  AUC(0-t): 6.04 µM·h
[28]
  half-life: 101 min
LoVo [29]
  inhibition in vivo at 40 mg/kg: 84.7%
Wee1-like protein kinase [16]
  IC50: 29 nM

## C[C@@H]1COCCN1c1nc(-c2ccnn2C)c2c(n1)c(-c1ccn[nH]1)nn2C
[30]
  AUC: 2710 ng·h/mL
[31]
  half-life: 134 min
LoVo [32]
  IC50: 124 nM
ATR/ATRIP
  IC50: 15 nM
[33]
  Cmax: 674 ng/mL

## COc1cc(F)cc(OCCCN)c1-c1cc(Nc2cnc(C#N)cn2)n[nH]1
[34]
  IC50: < 1 nM
HT-29
  TGI: 51%
[35]
  AUC(0-t): 4640 ng·h/mL

## C=CCn1c(=O)c2cnc(Nc3ccc(N4C[C@H]5CN(C)C[C@H]5C4)cc3)nc2n1-c1ccc(C(C)(C)O)cn1
[1]
  Tmax: 1.8 min
[2]
  bioavailability: 64.3%
[3]
  Cmax: 121 nM
[4]
  Tmax: 79.8 min
[5]
  AUC(0-t): 191 ng·h/mL
[6]
  half-life: 55.2 min
Wee1-like protein kinase [7]
  IC50: 1.83 nM
[8]
  Cmax: 241 nM
[9]
  AUC(0-t): 409 ng·h/mL
[10]
  half-life: 79.2 min

## CCOC(=O)NCCCOc1cc(F)cc(OC)c1-c1cc(Nc2cnc(C#N)cn2)n[nH]1
[34]
  IC50: < 50 nM
[35]
  AUC(0-t): 2990 ng·h/mL
[36]
  half-life: 318 min

## CN1CCN(C2CCN(c3ccc(Nc4ncc5c(F)c(C6CC6)n(-c6cccc(C(C)(C)O)n6)c5n4)cc3F)CC2)CC1
[37]
  Cmax: 117 nM
[38]
  AUC(0-t): 4580 ng·h/mL

## CN1CCC2(CC1)CCN(c1ccc(Nc3ncc4cc(C5CC5)n(-c5cccc(C(C)(C)O)n5)c4n3)cc1)CC2
[37]
  Cmax: 163 nM
[38]
  AUC(0-t): 4070 ng·h/mL
Wee1-like protein kinase [39]
  IC50: 1.03 nM
